Laboratory results published in patent US20060099682A1, “Human vanilloid receptors and their uses” (Glaxo Group Limited, priority 1998, published 2006).

What was measured:
Type in all cases: cell-based
hVR1 [1] = molecular target: T1, hVR1 (Homo sapiens, UniProt Q8NER1, M315I/T469I); test: Whole-cell patch clamp electrophysiology of human VR-1 channels transiently expressed in HEK293T cells; parameters: pClN5-new (B) with the full length hVR1 gene cloned via NotI and EcoRI restriction sites; expressed in transfected cells; host or cells: HEK293T
Experimental: The activation of human VR-1 channels transiently expressed in HEK293T cells by capsaicin was investigated. Cells grown on poly-L-lysine-coated glass coverslips were placed in a recording chamber (0.5 ml) and superfused with extracellular solution (2 ml min^−1). The extracellular solution contained: NaCl (140 mM), KCl (5 mM), MgCl2 (2 mM), CaCl2 (2 mM), 4-(2-hydroxethyl)-1-piperazineethanesulphonic acid (HEPES, 10 mM) and glucose (10 mM). The pH was adjusted to 7.4 with NaOH and osmolarity ranged from 310-320 mOsm I^−1. Patch pipettes (borosilicate glass) were pulled using a Sutter P-97 electrode puller. The pipettes were filled with an internal solution consisting of: CsCl (140 mM), ethylene glycol-bis(β-aminoethyl ether) N,N,N′,N′-tetra acetic acid Cs salt (Cs-EGTA, 5 mM) and HEPES (10 mM). The pH was adjusted to 7.25 using CsOH and the osmolarity ranged from 275-290 mOsm. When filled with this internal solution, patch electrodes had resistances of 2-5 MΩ. Currents were recorded using standard whole-cell voltage clamp recording techniques (31) at room temperature (21-23° C.) using an Axopatch 200A amplifier and signals were sampled at 2 or 0.1 kHz. The majority of series resistance errors (80-85%) were minimized with compensation circuitry. Membrane potentials were not corrected for junction potentials (<4 mV). Voltage pulses and data collection were performed on-line using pClamp8 software (Axon Instruments) interfaced with amplifiers. Membrane potentials were maintained at −60 mV between protocols.
Capsaicin or capsazepine (CPZ) were applied, using a ‘fast-flow sytem’, directly onto the recording cell (<1 s to equilibrate). […]

rat VR1 = molecular target: T2, rat VR1 (Rattus norvegicus, UniProt O35433); test: FLIPR calcium assay (fluo3-AM) with HEK293 cells stably expressing rat VR1
T2 construct: expressed in transfected cells
Experimental: Intracellular calcium is monitored with the calcium sensitive dye, fluo3-AM. HEK293 cells stably expressing rat VR1 were plated into a 96 well, poly-l-lysine treated FLIPR plate at 3×10^4 cells per well. On the following day, the plate was processed for FLIPR. FBP buffer was prepared (15 μM Probenecid (calcium ATPase pump blocker) in 1× FLIPR buffer (145 mM NaCl, 5 mM KCl, 1 mM MgCl2, 2 mM CaCl2, 10 mM glucose, 20 mM Hepes). FBP buffer pH was then adjusted to 7.4 with NaOH. 400 μl DMSO was added to a vial of fluo3-AM (Cambridge Bioscience, F-1241). The fluo3-AM solution was incubated at 37° C. for 10 min and vortexed. LOAD was prepared by adding 20 μl of fluo3-AM solution and 20 μl 20% pleuronic F-127 in DMSO (Cambridge Bioscience, P-3000) into 10 ml FBP. The 96 well plate containing cells was flicked off to remove cell medium. 100 μl LOAD was added per well. Cells were then incubated at 37° C. for 60 minutes. Capsaicin (a rVR1 agonist) and capsazepine (CPZ, a rVR1 antagonist) were prepared at 10× the desired final assay concentrations in FBP. The plate was flicked to remove LOAD from cells, and 180 μl FBP was added per well. […] Cells were monitored for 70 seconds after agonist addition. The FLIPR traces (fluorescence change (counts) versus time (seconds)) were produced for each well. […] The plate was incubated for 15 minutes at room temperature prior reading in the FLIPR.

hVR1 [2] = molecular target: T1, hVR1; test: Calcium imaging (fura2-AM) with HEK293 cells expressing hVR1; parameters: pClN5-new (B) with the full length hVR1 gene cloned via NotI and EcoRI restriction sites; expressed in transfected cells; host or cells: HEK293; settings: 37° C.
[3] = 1 μM CPZ against 1 μM capsaicin, holding potential −60 mV

T1 sequence (Q8NER1 whole entry M315I/T469I, the tested form may be a part): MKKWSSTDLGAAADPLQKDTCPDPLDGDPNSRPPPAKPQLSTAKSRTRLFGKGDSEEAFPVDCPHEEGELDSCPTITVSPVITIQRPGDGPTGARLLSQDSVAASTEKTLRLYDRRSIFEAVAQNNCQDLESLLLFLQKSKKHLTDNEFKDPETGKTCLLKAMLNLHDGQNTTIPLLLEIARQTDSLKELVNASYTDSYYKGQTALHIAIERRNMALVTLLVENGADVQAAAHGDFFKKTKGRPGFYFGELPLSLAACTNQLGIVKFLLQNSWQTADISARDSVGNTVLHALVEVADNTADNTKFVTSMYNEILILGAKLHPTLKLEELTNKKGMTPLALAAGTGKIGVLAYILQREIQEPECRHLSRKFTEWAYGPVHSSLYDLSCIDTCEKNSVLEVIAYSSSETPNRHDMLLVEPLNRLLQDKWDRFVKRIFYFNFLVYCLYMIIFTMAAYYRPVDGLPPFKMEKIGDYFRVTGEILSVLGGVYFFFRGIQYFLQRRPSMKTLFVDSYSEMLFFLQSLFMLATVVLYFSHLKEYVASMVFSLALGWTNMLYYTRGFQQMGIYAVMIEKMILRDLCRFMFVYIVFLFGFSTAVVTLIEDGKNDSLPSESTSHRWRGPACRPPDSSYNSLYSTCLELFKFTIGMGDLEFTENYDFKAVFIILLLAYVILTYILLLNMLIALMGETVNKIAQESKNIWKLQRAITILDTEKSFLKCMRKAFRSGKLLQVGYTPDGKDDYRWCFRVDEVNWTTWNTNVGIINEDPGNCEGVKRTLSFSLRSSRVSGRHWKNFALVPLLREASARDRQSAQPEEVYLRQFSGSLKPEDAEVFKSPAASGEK
T2 sequence (O35433 whole entry): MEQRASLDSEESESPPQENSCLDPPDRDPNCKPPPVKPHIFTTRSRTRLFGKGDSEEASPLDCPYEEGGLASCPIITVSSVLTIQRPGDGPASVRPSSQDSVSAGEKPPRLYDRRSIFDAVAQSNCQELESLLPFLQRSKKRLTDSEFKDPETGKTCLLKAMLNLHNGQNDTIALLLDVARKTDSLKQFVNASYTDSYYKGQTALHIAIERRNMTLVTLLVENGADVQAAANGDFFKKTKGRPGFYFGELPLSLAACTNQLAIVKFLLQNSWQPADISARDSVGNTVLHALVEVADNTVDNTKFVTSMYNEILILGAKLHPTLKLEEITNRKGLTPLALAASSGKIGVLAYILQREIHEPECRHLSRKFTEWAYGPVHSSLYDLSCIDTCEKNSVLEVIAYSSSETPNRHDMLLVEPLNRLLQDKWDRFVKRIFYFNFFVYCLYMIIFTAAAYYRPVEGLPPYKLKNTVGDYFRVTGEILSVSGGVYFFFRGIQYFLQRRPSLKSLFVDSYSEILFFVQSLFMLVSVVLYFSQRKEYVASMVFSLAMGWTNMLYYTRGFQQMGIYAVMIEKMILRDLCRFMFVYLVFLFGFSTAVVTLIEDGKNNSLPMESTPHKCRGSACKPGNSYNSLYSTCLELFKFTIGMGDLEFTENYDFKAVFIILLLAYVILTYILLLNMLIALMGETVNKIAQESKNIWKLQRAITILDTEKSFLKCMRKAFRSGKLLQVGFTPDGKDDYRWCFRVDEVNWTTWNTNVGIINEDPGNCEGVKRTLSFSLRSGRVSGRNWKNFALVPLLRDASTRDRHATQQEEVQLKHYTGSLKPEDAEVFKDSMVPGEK

current-voltage relationship (hVR1 [1]; 1 μM capsaicin, voltage ramps −100 to +70 mV)	size of capsaicin-evoked current when external calcium replaced (hVR1 [1]; capsaicin 1 μM, external calcium replaced with 5 mM EGTA)	current evoked by application of capsaicin (hVR1 [1]; capsaicin 1 μM, membrane held at −60 mV, HEK293T transiently expressing human VR1)	calcium influx response after addition of agonist (hVR1 [2])	blockade of capsaicin-evoked inward current (hVR1 [1]; [3])	reversibility of blockade (hVR1 [1]; [3])	blockade of capsaicin-evoked current in voltage ramps (hVR1 [1]; 1 μM CPZ against 1 μM capsaicin, voltage ramps −100 to +70 mV)	recovery after blockade in voltage ramps (hVR1 [1]; 1 μM CPZ, especially inward currents evoked by negative potentials)	antagonism of the capsaicin VR1 response (FLIPR peak heights) (rat VR1; cells pre-incubated in CPZ 15 minutes at room temperature)	SMILES	reduction of current by the 6th addition (desensitisation, rundown) (hVR1 [1]; capsaicin 1 μM added at 2 min intervals for about 40 s, 2 mM external calcium, current at +65 mV)	FLIPR trace after agonist addition (fluorescence change) (rat VR1; HEK293 stably expressing rVR1, monitored 70 seconds after addition)
substantial outward rectification	increased dramatically	produces an inward current	stimulated to influx calcium	–	–	–	–	–	COc1cc(CNC(=O)CCCC/C=C/C(C)C)ccc1O [capsaicin]	about 4 fold	Peaks indicate capsaicin-gated calcium influx
–	–	–	–	abolished	partially reversible	completely blocked the current	only partial recovery was observed	peak heights are reduced	Oc1cc2c(cc1O)CN(C(=S)NCCc1ccc(Cl)cc1)CCC2 [CPZ, capsazepine]	–	–
